Values joined by “and” are separate entries in the source; they are usually repeats but may differ in a detail not shown here. Identical values can stand only once.
Test system: 648629-189-R-J1-PDC spheroids with HUVEC/MSC, viability
Experiment: Anticancer human tumor 648629-189-R-J1-PDC patient-derived bladder carcinoma cell line growth inhibition [PI3K]
Details: for viability, T/C: stronger effect = lower value
In short: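 Tumor cells were combined with HUVEC and MSCs into spheroids, then dosed with PI3K-inhibitor combinations over half-log ranges capped near clinical Cmax or 10 microM.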

[1] = curve of first compound, second compound 0.0316 µM
[2] = curve of first compound, second compound 0.1 µM
[3] = curve of first compound, second compound 0.316 µM
[4] = curve of first compound, second compound 1 µM
[5] = second compound 0.0316 µM, first compound 0.0316 µM
[6] = second compound 0.0316 µM, first compound 0.1 µM
[7] = second compound 0.1 µM, first compound 0.0316 µM
[8] = second compound 0.1 µM, first compound 0.1 µM
[9] = second compound 0.316 µM, first compound 0.0316 µM
[10] = second compound 0.316 µM, first compound 0.1 µM
[11] = second compound 1 µM, first compound 0.0316 µM
[12] = second compound 1 µM, first compound 0.1 µM
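Also: spheroids exposed to agents for seven days before reading.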
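For viability, T/C in this document: percent of vehicle control luminescence where 100% = DMSO treated spheroids.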

CNC(=O)c1ccc(N2C(=S)N(c3ccc(C#N)c(C(F)(F)F)c3)C(=O)C2(C)C)cc1F + COc1c(OCCCN2CCOCC2)ccc2c3n(c(=NC(=O)c4cnc(N)nc4)nc12)CCN3
IC50 (curve of first compound, second compound 0.00316 µM): > 10000 nM | IC50 (curve of first compound, second compound 0.01 µM): > 10000 nM | IC50 [1]: > 10000 nM | IC50 [2]: > 10000 nM | IC50 [3]: < 31.6 nM | IC50 [4]: < 31.6 nM | viability, T/C (second compound 0.00316 µM, first compound 0.0316 µM): 107% | viability, T/C (second compound 0.00316 µM, first compound 0.1 µM): 103% | viability, T/C (second compound 0.00316 µM, first compound 0.316 µM): 113% | viability, T/C (second compound 0.00316 µM, first compound 1 µM): 116% | viability, T/C (second compound 0.00316 µM, first compound 3.16 µM): 121% | viability, T/C (second compound 0.00316 µM, first compound 10 µM): 97.7% | viability, T/C (second compound 0.01 µM, first compound 0.0316 µM): 117% | viability, T/C (second compound 0.01 µM, first compound 0.1 µM): 108% | viability, T/C (second compound 0.01 µM, first compound 0.316 µM): 102% | viability, T/C (second compound 0.01 µM, first compound 1 µM): 103% | viability, T/C (second compound 0.01 µM, first compound 3.16 µM): 107% | viability, T/C (second compound 0.01 µM, first compound 10 µM): 81.1% | viability, T/C [5]: 93.7% | viability, T/C [6]: 92.2% | viability, T/C (second compound 0.0316 µM, first compound 0.316 µM): 114% | viability, T/C (second compound 0.0316 µM, first compound 1 µM): 101% | viability, T/C (second compound 0.0316 µM, first compound 3.16 µM): 98.6% | viability, T/C (second compound 0.0316 µM, first compound 10 µM): 84% | viability, T/C [7]: 66% | viability, T/C [8]: 73.9% | viability, T/C (second compound 0.1 µM, first compound 0.316 µM): 72.8% | viability, T/C (second compound 0.1 µM, first compound 1 µM): 74.8% | viability, T/C (second compound 0.1 µM, first compound 3.16 µM): 62.9% | viability, T/C (second compound 0.1 µM, first compound 10 µM): 67.5% | viability, T/C [9]: 20.7% | viability, T/C [10]: 26.3% | viability, T/C (second compound 0.316 µM, first compound 0.316 µM): 28.3% | viability, T/C (second compound 0.316 µM, first compound 1 µM): 25.5% | viability, T/C (second compound 0.316 µM, first compound 3.16 µM): 24.8% | viability, T/C (second compound 0.316 µM, first compound 10 µM): 25.9% | viability, T/C [11]: 4.11% | viability, T/C [12]: 3.82% | viability, T/C (second compound 1 µM, first compound 0.316 µM): 3.77% | viability, T/C (second compound 1 µM, first compound 1 µM): 4.37% | viability, T/C (second compound 1 µM, first compound 3.16 µM): 3.8% | viability, T/C (second compound 1 µM, first compound 10 µM): 3.34%

CC(C)n1nc(-c2ccc3oc(N)nc3c2)c2c(N)ncnc21 + CC(Nc1ncnc2nc[nH]c12)c1cc2cccc(Cl)c2c(=O)n1-c1ccccc1
IC50 [1]: 73 nM | IC50 [2]: 63.8 nM | IC50 [3]: 62.6 nM | IC50 [4]: 61.5 nM | IC50 (curve of first compound, second compound 3.16 µM): 55.8 nM | IC50 (curve of first compound, second compound 10 µM): 32.1 nM | viability, T/C (second compound 0.0316 µM, first compound 0.000316 µM): 93.2% | viability, T/C (second compound 0.0316 µM, first compound 0.001 µM): 96.1% | viability, T/C (second compound 0.0316 µM, first compound 0.00316 µM): 87.9% | viability, T/C (second compound 0.0316 µM, first compound 0.01 µM): 85.4% | viability, T/C [5]: 85.8% | viability, T/C [6]: 36.5% | viability, T/C (second compound 0.1 µM, first compound 0.000316 µM): 101% | viability, T/C (second compound 0.1 µM, first compound 0.001 µM): 86.5% | viability, T/C (second compound 0.1 µM, first compound 0.00316 µM): 101% | viability, T/C (second compound 0.1 µM, first compound 0.01 µM): 97.7% | viability, T/C [7]: 69.5% | viability, T/C [8]: 37.5% | viability, T/C (second compound 0.316 µM, first compound 0.000316 µM): 99.5% | viability, T/C (second compound 0.316 µM, first compound 0.001 µM): 107% | viability, T/C (second compound 0.316 µM, first compound 0.00316 µM): 104% | viability, T/C (second compound 0.316 µM, first compound 0.01 µM): 85.8% | viability, T/C [9]: 73.8% | viability, T/C [10]: 34.7% | viability, T/C (second compound 1 µM, first compound 0.000316 µM): 104% | viability, T/C (second compound 1 µM, first compound 0.001 µM): 89.6% | viability, T/C (second compound 1 µM, first compound 0.00316 µM): 101% | viability, T/C (second compound 1 µM, first compound 0.01 µM): 85.6% | viability, T/C [11]: 68.8% | viability, T/C [12]: 36.5% | viability, T/C (second compound 3.16 µM, first compound 0.000316 µM): 85.8% | viability, T/C (second compound 3.16 µM, first compound 0.001 µM): 103% | viability, T/C (second compound 3.16 µM, first compound 0.00316 µM): 91.4% | viability, T/C (second compound 3.16 µM, first compound 0.01 µM): 84.6% | viability, T/C (second compound 3.16 µM, first compound 0.0316 µM): 66.1% | viability, T/C (second compound 3.16 µM, first compound 0.1 µM): 33.8% | viability, T/C (second compound 10 µM, first compound 0.000316 µM): 83.1% | viability, T/C (second compound 10 µM, first compound 0.001 µM): 87.1% | viability, T/C (second compound 10 µM, first compound 0.00316 µM): 81.4% | viability, T/C (second compound 10 µM, first compound 0.01 µM): 72.3% | viability, T/C (second compound 10 µM, first compound 0.0316 µM): 50.4% | viability, T/C (second compound 10 µM, first compound 0.1 µM): 30.3%

CCCS(=O)(=O)Nc1ccc(F)c(C(=O)c2c[nH]c3ncc(-c4ccc(Cl)cc4)cc23)c1F
viability, T/C (compound 0.0316 µM): 103% (2×) and 105% and 102% | viability, T/C (compound 0.1 µM): 108% [middle of 4 runs] | viability, T/C (compound 0.316 µM): 112% [middle of 4 runs] | viability, T/C (compound 1 µM): 110% [middle of 4 runs] | viability, T/C (compound 3.16 µM): 91.3% [middle of 4 runs] | viability, T/C (compound 10 µM): 0.48% [middle of 4 runs] | IC50 (curve of compound): 5.33 µM [middle of 4 runs]

Source: PubChem BioAssay AID1963974 (Molecular Pharmacology Branch, DTP, NCI, 2024)
